Patent US20260285850A1, “SUBSTITUTED OXAZOLIDINONES AND IMIDAZOLINONES AS HERBICIDES” (FMC CORPORATION, priority 2023, published 2026)

What was measured:
Format in all cases: in vivo
[1] = system: barnyardgrass (Echinochloa crus-galli); assay: Test A preemergence soil spray, visual injury rating 0-100; details: 10 days
How it was run: (§1)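 Grow plants in loam soil blended with sand. Apply formulated compound (non-phytotoxic solvent, surfactant) as a directed soil spray before emergence, or to plants at the one- to two-leaf stage after emergence. Hold in greenhouse 10 days, then rate injury visually versus untreated controls on a 0-100 scale.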

[2] = system: blackgrass (Alopecurus myosuroides); assay: as above; details: 10 days
How it was run: as §1

corn (Zea mays) [3] = assay: as above; details: 10 days
How it was run: as §1

[4] = system: green foxtail (Setaria viridis); assay: as above; details: 10 days
How it was run: as §1

kochia (Bassia scoparia) [5] = assay: as above; details: 10 days
How it was run: as §1

[6] = system: oat, wild (wild oat, Avena fatua); assay: as above; details: 10 days
How it was run: as §1

[7] = system: palmer (palmer amaranth, palmer pigweed, Amaranthus palmeri); assay: as above; details: 10 days
How it was run: as §1

[8] = system: ragweed (common ragweed, Ambrosia artemisiifolia); assay: as above; details: 10 days
How it was run: as §1

[9] = system: ryegrass, Italian (italian ryegrass, Lolium multiflorum); assay: as above; details: 10 days
How it was run: as §1

soybean (Glycine max) [10] = assay: as above; details: 10 days
How it was run: as §1

[11] = system: wheat (Triticum aestivum); assay: as above; details: 10 days
How it was run: as §1

[12] = system: barnyardgrass (Echinochloa crus-galli); assay: Test A postemergence application, visual injury rating 0-100
How it was run: as §1

[13] = system: blackgrass (Alopecurus myosuroides); assay: as above
How it was run: as §1

corn (Zea mays) [14] = assay: as above
How it was run: as §1

[15] = system: galium (catchweed bedstraw, Galium aparine); assay: as above
How it was run: as §1

[16] = system: green foxtail (Setaria viridis); assay: as above
How it was run: as §1

[17] = system: horseweed (Erigeron canadensis); assay: as above
How it was run: as §1

kochia (Bassia scoparia) [18] = assay: as above
How it was run: as §1

[19] = system: oat, wild (wild oat, Avena fatua); assay: as above
How it was run: as §1

[20] = system: palmer (palmer amaranth, palmer pigweed, Amaranthus palmeri); assay: as above
How it was run: as §1

[21] = system: ragweed (common ragweed, Ambrosia artemisiifolia); assay: as above
How it was run: as §1

[22] = system: ryegrass, Italian (italian ryegrass, Lolium multiflorum); assay: as above
How it was run: as §1

soybean (Glycine max) [23] = assay: as above
How it was run: as §1

[24] = system: wheat (Triticum aestivum); assay: as above
How it was run: as §1

[25] = system: barnyardgrass (Echinochloa crusgalli); assay: Test B flooded paddy test, visual plant response rating 0-100; details: 250 g ai/ha, Flood, applied to paddy water, evaluated after 13 days
How it was run: (§2)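 Visual scores versus untreated controls were recorded 13 days after treatment of greenhouse-held plants. At the 2-leaf stage, pots were flooded 3 cm above the soil surface and compounds added straight to the water.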

[26] = system: ducksalad (Heteranthera limosa); assay: as above; details: 250 g ai/ha, Flood, applied to paddy water, evaluated after 13 days
How it was run: as §2

rice (Oryza sativa) = assay: as above; details: 250 g ai/ha, Flood, applied to paddy water, evaluated after 13 days
How it was run: as §2

[27] = system: sedge, umbrella (small-flower umbrella sedge, Cyperus difformis); assay: as above; details: 250 g ai/ha, Flood, applied to paddy water, evaluated after 13 days
How it was run: as §2

[28] = 62 g ai/ha, 0 = no effect, 100 = complete control
[29] = 62 g ai/ha, postemergence, 10 days, 0 = no effect, 100 = complete control
[30] = Postemergence, 16 g ai/ha, greenhouse 10 days, 0 no effect, 100 complete control

CC(C)OC(=O)C1=CCC(NC(=O)C2(C)CN(c3cc(F)cc(F)c3)C(=O)O2)C1 (stereo not shown) [Compound 100]
Barnyardgrass plant response rating ([1]; 16 g ai/ha, 0 to 100 scale): 30 | Barnyardgrass plant response rating (0-100) [1, 28]: 100 | Blackgrass plant response rating ([2]; 16 g ai/ha, 0 to 100 scale): 0 | Blackgrass plant response rating (0-100) [2, 28]: 60 | Corn plant response rating (corn (Zea mays) [3]; 16 g ai/ha, 0 to 100 scale): 30 | Corn plant response rating (0-100) (corn (Zea mays) [3]; [28]): 30 | Foxtail, Green plant response rating ([4]; 16 g ai/ha, 0 to 100 scale): 80 | Foxtail, Green plant response rating (0-100) [4, 28]: 100 | Kochia plant response rating (kochia (Bassia scoparia) [5]; 16 g ai/ha, 0 to 100 scale): 0 | Kochia plant response rating (0-100) (kochia (Bassia scoparia) [5]; [28]): 100 | Oat, Wild plant response rating ([6]; 16 g ai/ha, 0 to 100 scale): 0 | Oat, Wild plant response rating (0-100) [6, 28]: 0 | Pigweed, Palmer plant response rating ([7]; 16 g ai/ha, 0 to 100 scale): 90 | Pigweed, Palmer plant response rating (0-100) [7, 28]: 100 | Ragweed plant response rating ([8]; 16 g ai/ha, 0 to 100 scale): 0 | Ragweed plant response rating (0-100) [8, 28]: 0 | Ryegrass, Italian plant response rating ([9]; 16 g ai/ha, 0 to 100 scale): 60 | Ryegrass, Italian plant response rating (0-100) [9, 28]: 80 | Soybean plant response rating (soybean (Glycine max) [10]; 16 g ai/ha, 0 to 100 scale): 0 | Soybean plant response rating (0-100) (soybean (Glycine max) [10]; [28]): 40 | Wheat plant response rating ([11]; 16 g ai/ha, 0 to 100 scale): 50 | Wheat plant response rating (0-100) [11, 28]: 90 | Barnyardgrass plant response rating (0-100) [12, 29]: 100 | Barnyardgrass plant response rating (0 to 100 scale) [12, 30]: 50 | Blackgrass plant response rating (0-100) [13, 29]: 90 | Blackgrass plant response rating (0 to 100 scale) [13, 30]: 60 | Corn plant response rating (0-100) (corn (Zea mays) [14]; [29]): 100 | Corn plant response rating (0 to 100 scale) (corn (Zea mays) [14]; [30]): 100 | Galium plant response rating (0-100) [15, 29]: 90 | Galium plant response rating (0 to 100 scale) [15, 30]: 70 | Foxtail, Green plant response rating (0-100) [16, 29]: 90 | Foxtail, Green plant response rating (0 to 100 scale) [16, 30]: 80 | Horseweed plant response rating (0-100) [17, 29]: 40 | Horseweed plant response rating (0 to 100 scale) [17, 30]: 0 | Kochia plant response rating (0-100) (kochia (Bassia scoparia) [18]; [29]): 90 | Kochia plant response rating (0 to 100 scale) (kochia (Bassia scoparia) [18]; [30]): 80 | Oat, Wild plant response rating (0-100) [19, 29]: 100 | Oat, Wild plant response rating (0 to 100 scale) [19, 30]: 70 | Pigweed, Palmer plant response rating (0-100) [20, 29]: 80 | Pigweed, Palmer plant response rating (0 to 100 scale) [20, 30]: 20 | Ragweed plant response rating (0-100) [21, 29]: 40 | Ragweed plant response rating (0 to 100 scale) [21, 30]: 0 | Ryegrass, Italian plant response rating (0-100) [22, 29]: 90 | Ryegrass, Italian plant response rating (0 to 100 scale) [22, 30]: 70 | Soybean plant response rating (0-100) (soybean (Glycine max) [23]; [29]): 70 | Soybean plant response rating (0 to 100 scale) (soybean (Glycine max) [23]; [30]): 60 | Wheat plant response rating (0-100) [24, 29]: 80 | Wheat plant response rating (0 to 100 scale) [24, 30]: 70 | Plant response rating, Barnyardgrass (0 to 100 scale, 0 is no effect and 100 is complete control) [25]: 70 | Plant response rating, Ducksalad (0 to 100 scale, 0 is no effect and 100 is complete control) [26]: 75 | Plant response rating, Rice (0 to 100 scale, 0 is no effect and 100 is complete control) (rice (Oryza sativa)): 70 | Plant response rating, Sedge, Umbrella (0 to 100 scale, 0 is no effect and 100 is complete control) [27]: 95
